US20040176471A1, “Novel chalcone derivatives and pharmaceutical compositions comprising the same” (KAOHSIUNG MEDICAL UNIVERSITY, priority 2003, published 2004)
Where two headings read alike, the source gives them in different places.

Tests used:
[1] = system: rat peritoneal mast cells; test: Mast cell degranulation stimulated with compound 48/80 (release of β-glucuronidase and histamine); format: cell-based; settings: for IC50: Mast cell, compound 48/80 (10 μg/mL); for % of inhibition of Histamine release at the highest concentration / % of inhibition of β-Glucuronidase release at the highest concentration: compound 48/80, at the highest concentration (bound given in the source)
Method: Heparinized Tyrode's solution was injected into the peritoneal cavity of exsanguinated rat (Sprague-Dawley, 250-300 g, 10-12 weeks old). […] Cell pellets were washed and suspended in Tyrode's solution with 0.1% BSA to 1×10^6 cells/mL. Cell suspension was then preincubated at 37° C. with DMSO or a tested compound for 5 min. The final volume of DMSO in the reaction mixture was≦0.5%. […] After treatment of the cell suspension with Triton X-100, the total content of β-glucuronidase and histamine was measured, and the percentage release was calculated. In the experiment, Mepacrine was used as a positive control.

rat neutrophils [2] = test: Neutrophil degranulation stimulated with fMLP/CB (release of β-glucuronidase and lysozyme); format: cell-based; settings: for IC50: Neutrophil, fMLP (1 μM)/CB (5 μg/mL)
Method: Blood was withdrawn from rat (Sprague-Dawley, 250-300 g, 10-12 weeks old) and mixed with EDTA. […] Cell suspension was preincubated at 37° C. with DMSO or drugs for 10 min, and then challenged with fMLP (1 μM)/CB (5 μg/mL). The final volume of DMSO in the reaction mixture was≦0.5%. […] After treatment of the cell suspension with Triton X-100, the total content of lysozyme and β-glucuronidase was measured and the percentage release was calculated. In the experiment, Trifluoperazine was used as a positive control.

rat neutrophils [3] = test: Superoxide anion generation in neutrophils stimulated with fMLP/CB or PMA (cytochrome c reduction); format: cell-based; settings: for inhibition / IC50: Neutrophil; for inhibition / IC50 / % of inhibition of superoxide anion generation at the highest concentration, fMLP/CB: rat neutrophils; for inhibition / % of inhibition of superoxide anion generation at the highest concentration, fMLP/CB: at the highest concentration (bound given in the source)
Method: Superoxide anion generation was measured in terms of superoxide dismutase-inhibitable cytochrome c reduction (M. Market et al. (1984), Methods Enzymol., 105, 358). Neutrophil suspension was preincubated with DMSO or a tested compound for 3 min, and then superoxide dismutase or Hank's balanced salt solution (HBSS) was added into the blank and test wells, respectively. The final volume of DMSO in the reaction mixture was≦0.5%. After addition of cytochrome c, reaction was initiated by challenge with formyl-Met-Leu-Phe (fMLP) (0.3 μM)/cytochalasin B (CB) (5 μg/mL) or phorbol myristate acetate (PMA) (3 nM). Thirty minutes later, the reaction was terminated by centrifugation and the absorbance changes of supernatant were monitored at 550 nm in a microplate reader. In the experiment, Trifluoperazine was used as a positive control

RAW 264.7 cells = test: NO production (nitrite accumulation, Griess reaction) in LPS-stimulated macrophage-like cells; format: cell-based, mouse; settings: for suppression of LPS-induced NO production in RAW 264.7 cells (in words) / IC50: LPS (1 μg/mL), 24 hrs; for IC50: read-out: IC50, accumulation of NO2− in culture media, RAW 264.7 cells; for % of inhibition of NO2− accumulation at the highest concentration, RAW 264.7 cells: LPS, at the highest concentration (bound given in the source)
Method: RAW 264.7 mouse macrophage-like cell line (American Type Culture Collection (ATCC), PO Box 1549, Manassas, Va. 20108 USA) was plated in 96 well tissue-culture plates in Dulbecco's Modified Eagle Medium (DMEM) supplemented with 10% fetal calf serum (FCS), 100 units/ml of penicillin and streptomycin at 2×10^5 cells/200 μL per well. Cells were allowed to adhere overnight. The cells were treated with DMSO or a tested compound at 37° C. for 1 hr. followed by stimulation with 1 μg/mL of LPS (Escherichia coli, serotype 0111:B4) for 24 hrs. Thereafter, the medium in each well was collected and stored at −70° C. until use. The final volume of DMSO in the reaction mixture was≦0.5%.
(§1) The production of NO in cell medium was determined by measuring the content of nitrite based on the Griess reaction (L. Mingghetti et at (1997), Glia, 19, 152-160). Briefly, 40 μL of 5 mM sulfanilamide, 10 μL of 2 M HCl, and 20 μL of 40 mM naphthylethylenediamine were added into 150 μL culture medium in sequence. After 10 min of incubation at room temperature, absorbance was measured at 550 nm in a microplate reader. A standard nitrite curve was generated in the same fashion, using NaNO2.

N9 cells = test: NO production (nitrite accumulation, Griess reaction) in LPS/IFN-γ-stimulated microglial cells; format: cell-based, murine; settings: for IC50: LPS (10 ng/mL)/IFN-γ (10 unit/mL), 24 hrs, read-out: IC50, accumulation of NO2− in culture media, N9 cells; for % of inhibition of NO2− accumulation at the highest concentration, N9 cells: LPS/IFN-γ, at the highest concentration (bound given in the source)
Method: Cells of murine microglial cell line N9 (kindly provided by Dr. P. Ricciardi-Castagnoli, CNR Cellular and Molecular Pharmacology Center, Italy) (S. B. Corradin et al. (1993), Glia, 7, 255-262) were suspended in Iscove's Modified Dulbecco's medium containing 5% heat-inactivated FCS and antibiotics and then plated into 96-well tissue-culture plates at 8×10^4 cells/200 μL per well. The cells were treated with DMSO or a tested compound at 37° C. for 1 hr, followed by stimulation with LPS (10 ng/mL)/IFN-γ (10 unit/mL) for 24 hrs. Thereafter, the medium in each well was collected and stored at −70° C. until use. The final volume of DMSO in the reaction mixture was<0.5%
as §1

[4] = read-out: IG50, release of Histamine
[5] = read-out: IG50, release of β-Glucuronidase
[6] = rat neutrophils, read-out: IC50, release of Lysozyme
[7] = rat neutrophils, read-out: IC50, release of β-Glucuronidase
[8] = PMA (3 nM), read-out: IC50, superoxide anion generation, PMA
[9] = fMLP (0.3 μM)/CB (5 μg/mL), read-out: IC50, superoxide anion generation, fMLP/CB
[10] = rat neutrophils, fMLP/CB, at the highest concentration (bound given in the source)

COc1ccc(OC)c(C(=O)/C=C/c2ccc(O)cc2)c1 [Compound 1, 2′,5′-Dimethoxy-4-hydroxychalcone]
IC50 [1, 4]: > 30 µM
IC50 [1, 5]: > 30 µM
% of inhibition of Histamine release at the highest concentration [1]: 10.0 ± 5.1%
% of inhibition of β-Glucuronidase release at the highest concentration [1]: 8.3 ± 2.3%
IC50 (rat neutrophils [2]; [6]): 28.3 ± 1.9 µM
IC50 (rat neutrophils [2]; [7]): 20.6 ± 2 µM
inhibition (rat neutrophils [3]; PMA (3 nM)): 36.3%
IC50 (rat neutrophils [3]; [8]): > 30 µM
IC50 (rat neutrophils [3]; [9]): 19.5 ± 3.5 µM
suppression of LPS-induced NO production in RAW 264.7 cells (in words) (RAW 264.7 cells): suppressed
IC50 (RAW 264.7 cells; Mus musculus, RAW264.7): 14.6 ± 0.1 µM
IC50 (N9 cells; Mus musculus, N9): 17.8 ± 0.2 µM
melting point: 127 to 128 °C

COc1ccc(OC)c(C(=O)/C=C/c2ccc(Br)cc2)c1 [Compound 2, 4-Bromo-2′,5′-dimethoxychalcone]
IC50 [1, 4]: > 30 µM
IC50 [1, 5]: > 30 µM
% of inhibition of Histamine release at the highest concentration [1]: 21.7 ± 1.5%
% of inhibition of β-Glucuronidase release at the highest concentration [1]: 28.6 ± 3.4%
IC50 (rat neutrophils [2]; [6]): 5.7 ± 0.3 µM
IC50 (rat neutrophils [2]; [7]): 5.6 ± 0.3 µM
inhibition (rat neutrophils [3]; PMA (3 nM)): 22.9%
IC50 (rat neutrophils [3]; [8]): > 30 µM
IC50 (rat neutrophils [3]; [9]): 8 ± 2.4 µM
% of inhibition of NO2− accumulation at the highest concentration, RAW 264.7 cells (RAW 264.7 cells): 8.9 ± 4.0%
IC50 (RAW 264.7 cells; Mus musculus, RAW264.7): > 10 µM
% of inhibition of NO2− accumulation at the highest concentration, N9 cells (N9 cells): −5.6 ± 1.1%
IC50 (N9 cells; Mus musculus, N9): > 10 µM
melting point: 85 to 87 °C

COc1ccc(OC)c(C(=O)/C=C/c2ccc(Cl)c(Cl)c2)c1 [Compound 3, 3,4Dichloro-2′,5′-dimethoxychalcone]
IC50 [1, 4]: > 30 µM
IC50 [1, 5]: > 30 µM
% of inhibition of Histamine release at the highest concentration [1]: 35.2 ± 1.0%
% of inhibition of β-Glucuronidase release at the highest concentration [1]: 44.3 ± 2.3%
IC50 (rat neutrophils [2]; [6]): 5.1 ± 0.1 µM
IC50 (rat neutrophils [2]; [7]): 5 ± 0.3 µM
inhibition (rat neutrophils [3]; PMA (3 nM)): -27.1%
IC50 (rat neutrophils [3]; [8]): > 30 µM
IC50 (rat neutrophils [3]; [9]): 12.9 ± 0.4 µM
% of inhibition of NO2− accumulation at the highest concentration, RAW 264.7 cells (RAW 264.7 cells): 2.0 ± 3.1%
IC50 (RAW 264.7 cells; Mus musculus, RAW264.7): > 3 µM
% of inhibition of NO2− accumulation at the highest concentration, N9 cells (N9 cells): 4.3 ± 3.1%
IC50 (N9 cells; Mus musculus, N9): > 3 µM
melting point: 121 to 123 °C

O=C(/C=C/c1ccc(Cl)c(Cl)c1)c1cc(O)ccc1O [Compound 4, 3,4-Dichloro-2′,5′-dihydroxychalcone]
inhibition (rat neutrophils [3]; PMA (3 nM)): 21.9%
IC50 (rat neutrophils [3]; [8]): > 10 µM
IC50 (rat neutrophils [3]; [9]): 0.6 ± 0.2 µM
inhibitory effect on fMLP/CB-induced superoxide anion generation (in words) (rat neutrophils [3]): more potent than the positive control, trifluoperazine
% of inhibition of NO2− accumulation at the highest concentration, RAW 264.7 cells (RAW 264.7 cells): −4.9 ± 1.9%
IC50 (RAW 264.7 cells; Mus musculus, RAW264.7): > 1 µM
% of inhibition of NO2− accumulation at the highest concentration, N9 cells (N9 cells): −10.3 ± 1.5%
IC50 (N9 cells; Mus musculus, N9): > 1 µM
melting point: 171 to 174 °C

CCOc1ccc(OCC)c(C(=O)/C=C/c2ccc(Cl)c(Cl)c2)c1 [Compound 5, 3,4-Dichloro-2′,5′-diethoxychalcone]
IC50 [1, 4]: > 30 µM
IC50 [1, 5]: > 30 µM
% of inhibition of Histamine release at the highest concentration [1]: 12.9 ± 7.9%
% of inhibition of β-Glucuronidase release at the highest concentration [1]: 5.5 ± 4.7%
IC50 (rat neutrophils [2]; [6]): > 30 µM
IC50 (rat neutrophils [2]; [7]): > 30 µM
inhibitory effect on neutrophil degranulation (in words) (rat neutrophils [2]; fMLP/CB): no significant inhibitory effects
% of inhibition of Lysozyme release at the highest concentration (rat neutrophils [2]; [10]): 27.1 ± 5.0%
% of inhibition of β-Glucuronidase release at the highest concentration (rat neutrophils [2]; [10]): 30.6 ± 4.1%
inhibition (rat neutrophils [3]; PMA (3 nM)): 13.2%
IC50 (rat neutrophils [3]; [8]): > 30 µM
IC50 (rat neutrophils [3]; [9]): > 30 µM
inhibitory effect on fMLP/CB-induced superoxide anion generation (in words) (rat neutrophils [3]): not to have significant inhibitory effects
% of inhibition of superoxide anion generation at the highest concentration, fMLP/CB (rat neutrophils [3]): 32.4 ± 12.2%
suppression of LPS-induced NO production in RAW 264.7 cells (in words) (RAW 264.7 cells): suppressed
IC50 (RAW 264.7 cells; Mus musculus, RAW264.7): 4.9 ± 0.3 µM
IC50 (N9 cells; Mus musculus, N9): 3.7 ± 0.1 µM
melting point: 152 to 153 °C

O=C(/C=C/c1ccsc1)c1cc(O)ccc1O [Compound 7, 2′,5′-Dihydroxy-3-thienylchalcone]
inhibition (rat neutrophils [3]; PMA (3 nM)): 23.5%
IC50 (rat neutrophils [3]; [8]): > 1 µM
IC50 (rat neutrophils [3]; [9]): > 1 µM
% of inhibition of superoxide anion generation at the highest concentration, fMLP/CB (rat neutrophils [3]): 43.4 ± 6.1%
% of inhibition of NO2− accumulation at the highest concentration, RAW 264.7 cells (RAW 264.7 cells): 9.7 ± 2.9%
IC50 (RAW 264.7 cells; Mus musculus, RAW264.7): > 3 µM
% of inhibition of NO2− accumulation at the highest concentration, N9 cells (N9 cells): 10.6 ± 8.2%
IC50 (N9 cells; Mus musculus, N9): > 3 µM
melting point: 156 to 157 °C

COC(=O)[C@@H](N)CCCNC(=N)N[N+](=O)[O-] [L-NAME, N^ω-nitro-L-arginine methyl ether, reference compound]
IC50 (RAW 264.7 cells; positive control): 510 ± 20 µM
IC50 (N9 cells; positive control): 630 ± 10 µM

CCN(CC)CCCC(C)Nc1c2ccc(Cl)cc2nc2ccc(OC)cc12 (stereo not shown) [Mepacrine, reference compound]
IC50 [1, 4]: 48.5 ± 3.8 µM
IC50 [1, 5]: 32.2 ± 3.6 µM

CN1CCN(CCCN2c3ccccc3Sc3ccc(C(F)(F)F)cc32)CC1 [Trifluoperazine, reference compound]
IC50 (rat neutrophils [2]; [6]): 18.3 ± 0.9 µM
IC50 (rat neutrophils [2]; [7]): 18.9 ± 2.1 µM
IC50 (rat neutrophils [3]; [8]): 9.7 ± 1.1 µM
IC50 (rat neutrophils [3]; [9]): 12.9 ± 1 µM
